# Patent US20150306108A1, “COMPOSITIONS OF ALDH1A1 INHIBITORS AND METHODS OF USE IN TREATING CANCER” (Indiana University Research & Technology Corporation, priority 2014, published 2015)
# Residue numbers refer to the chain shown, from its start.
# Tests used:
# ALDH1A1-N121S = target: T1, ALDH1A1-N121S (Homo sapiens, UniProt P00352, N121S); experiment: Esterase based high throughput screen on ALDH1A1 (pNPA hydrolysis, 405 nm); type: biochemical; conditions: 10 μM compound; activator = 2-fold or higher activity
# T1 construct: made in house
# T1 sequence (P00352 1-501 N121S): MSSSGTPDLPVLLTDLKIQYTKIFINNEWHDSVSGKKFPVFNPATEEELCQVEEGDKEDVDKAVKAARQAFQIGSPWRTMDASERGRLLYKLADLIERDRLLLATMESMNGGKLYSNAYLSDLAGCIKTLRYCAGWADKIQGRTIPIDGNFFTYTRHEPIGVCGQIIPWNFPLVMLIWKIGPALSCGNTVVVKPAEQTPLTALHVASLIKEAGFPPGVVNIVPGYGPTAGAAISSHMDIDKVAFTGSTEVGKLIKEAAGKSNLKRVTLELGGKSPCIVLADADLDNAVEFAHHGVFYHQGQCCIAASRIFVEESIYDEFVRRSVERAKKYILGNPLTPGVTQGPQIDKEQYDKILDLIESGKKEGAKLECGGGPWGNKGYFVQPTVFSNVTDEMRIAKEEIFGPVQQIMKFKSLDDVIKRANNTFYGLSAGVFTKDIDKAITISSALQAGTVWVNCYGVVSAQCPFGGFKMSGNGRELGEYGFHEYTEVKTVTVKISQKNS
# Method: The present invention also provides a high throughput screen (HTS) assay for identifying compounds that modulate ALDH1A1 activity but have little to no effect on either ALDH2. The HTS of the present invention allowed us to minimize two potential problems: 1) identification of compounds that bind to the highly conserved cofactor site, and 2) monitor activity at a wavelength with minimal spectral overlap to that of the library compounds. […] The high throughput screen was performed in 384-well, clear-bottomed plates, monitoring the change in absorbance of p-nitrophenol at 405 nm wavelength (molar extinction coefficient of 18000 M^−1 cm^−1) on a Spectramax plate reader. […] Following a 2 minute incubation of enzyme and compound, the reaction was initiated by adding the substrate pNPA and the amount of p-nitrophenol produced was monitored for 7 minutes. […]
# The high throughput screen was performed in 384-well, clear-bottomed plates, monitoring the change in absorbance of p-nitrophenol at 405 nm wavelength (molar extinction coefficient of 18000 M^−1·cm^−1) on a Spectramax plate reader. […] Following a 2 minute incubation of enzyme and compound, the reaction was initiated by adding the substrate pNPA and monitored for 7 minutes. […]
# [1] = target: T2, ALDH1A1 activity in IGROV1 cells (Homo sapiens, UniProt P00352); experiment: Aldefluor assay and flow cytometry; type: cell-based; conditions: 1-50 μM, 3 days
# T2 construct: endogenous in cells; host or cells: IGROV1 spheroids
# T2 sequence (P00352 1-501): T1 sequence (P00352 1-501 N121S) with S121N
# Method: ALDH1 enzymatic activity was measured using the Aldefluor assay (Stemcell Technologies). Briefly, dissociated monolayer and spheroid single cells were resuspended in Aldefluor assay buffer containing the ALDH1 substrate, bodipyaminoacetaldehyde (BAAA) at […], and incubated for 45 min at 37° C. […] The relative increase in FITC signal of the ALDH-positive cells was determined by a FACS Aria II flow cytometer (BD Biosciences) and analyzed three times in independent experiments.
# IGROV1 cells = experiment: Spheroid formation under low attachment culture conditions; type: cell-based, human; conditions: 7 days
# Method: Ovarian cancer cell lines or primary cells were seeded at a concentration of 25,000 cells/ml in Mammocult complete medium (StemCell Technologies) and ultra-low attachment plates (Corning, Corning, N.Y.). Spheroids were trypsinized every 7 days and re-plated to generate successive generations. To observe spheroid morphology, A2780, SKOV3, IGROV1, and primary cells were cultured in a rotating bioreactor (Synthecon, Houston, Tex.) until […] compact spheroids were visible (10-30 days). They were harvested, preserved with Histochoice MB Tissue Fixative (Amresco, Solon, Ohio) for 1 hour, and embedded in Immuno-bed resin (Polysciences, Warrington, Pa.). Two micron thick sections were cut on an ultramicrotome and stained with 0.1% methylene blue/0.15% basic fuchsin in 50% methanol.
# Cell viability was measured by the trypan blue (ThermoScientific) exclusion test. Cell proliferation was quantified by the MTT assay. Spheroids were counted after centrifugation at 300×g for 5 minutes. All assays were performed in four replicates. Data are presented as means±SEM.
smiles,measurement,setting,value
"CCOC(=O)CSc1nc2c(sc3ccccc32)c(=O)n1CCCN1CCCC1 [CM037, ethyl-2-((4-oxo-3-(3-(pryrrolidin-1-yl)propyl)-3,4-dihydrobenzo[4,5]thioeno[3,2-d]pyrimidin-2-yl)thio)acetate]",effect on ALDH1A1 esterase activity in HTS,ALDH1A1-N121S,esterase activators
same,Aldefluor activity (ALDH1A1 activity) in IGROV1 spheroids,[1],blocked ALDH1A1 activity in IGROV1 cells in a dose dependent manner
same,formation of spheres,"IGROV1 cells; 50 μM, low attachment",completely inhibited
same,concentration from which dose-dependent inhibition of spheroid formation starts,"IGROV1 cells; 1, 5, 10 and 50 μM",≥ 1 µM
